Assay results as given in patent US10597388B2, “Pyridazinone herbicides” (FMC CORPORATION, priority 2014, dated 2020).

Columns and labels:
Assay in all cases: Test D controlled growth environment herbicide test, pre- and postemergence
Type in all cases: in vivo
[1] = tested on: Russian thistle (Salsola kali)
How it was run: (§1)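 Species sown in silt loam and sprayed preemergence, or grown in peat-based medium to 2–18 cm (1- to 4-leaf stage) and sprayed postemergence, with compounds in non-phytotoxic solvent plus surfactant. Visual injury scored versus controls after 14–21 d in a controlled environment, 0 (no effect) to 100 (complete control).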

[2] = tested on: blackgrass (Alopecurus myosuroides)
How it was run: as §1

[3] = tested on: bromegrass, downy (downy bromegrass, Bromus tectorum)
How it was run: as §1

[4] = tested on: chamomile (scentless chamomile, Matricaria inodora); details: for Chamomile plant response rating: 31 g ai/ha
How it was run: as §1

[5] = tested on: chickweed (common chickweed, Stellaria media)
How it was run: as §1

[6] = tested on: deadnettle (henbit deadnettle, Lamium amplexicaule); details: for Deadnettle plant response rating: 31 g ai/ha
How it was run: as §1

[7] = tested on: field violet (Viola arvensis)
How it was run: as §1

[8] = tested on: kochia (Kochia scoparia)
How it was run: as §1

[9] = tested on: lambsquarters (Chenopodium album)
How it was run: as §1

[10] = tested on: radish, wild (wild radish, Raphanus raphanistrum); details: for Radish, Wild plant response rating: 31 g ai/ha
How it was run: as §1

[11] = tested on: ryegrass, Italian (Italian ryegrass, Lolium multiflorum)
How it was run: as §1

[12] = tested on: speedwell (bird's-eye speedwell, Veronica persica); details: for Speedwell plant response rating: 31 g ai/ha
How it was run: as §1

[13] = tested on: wheat, winter (winter wheat, Triticum aestivum)
How it was run: as §1

[14] = tested on: windgrass (Apera spica-venti)
How it was run: as §1

[15] = Postemergence, 31 g ai/ha, scale 0 to 100 (0 no effect, 100 complete control)
[16] = Postemergence, 125 g ai/ha, visual rating on scale 0 (no effect) to 100 (complete control), 14 to 21 d
[17] = Postemergence, 250 g ai/ha, scale 0 to 100 (0 no effect, 100 complete control)
[18] = Preemergence, 125 g ai/ha, scale 0 to 100 (0 no effect, 100 complete control)
[19] = Preemergence, 250 g ai/ha, scale 0 to 100, 0 no effect, 100 complete control
[20] = postemergence, 62 g ai/ha, scale 0 to 100, 0 no effect, 100 complete control
[21] = Preemergence, 62 g ai/ha, scale 0 to 100 (0 no effect, 100 complete control)
[22] = Postemergence, scale 0 to 100 (0 no effect, 100 complete control)

CCCC(=O)Oc1c(C)nn(C)c(=O)c1-c1c(C)sc2ccc(C)cc12 [Compound 105]
95: Plant response rating, Field Violet [7, 16] | Plant response rating, Kochia [8, 16] | Plant response rating, Kochia [8, 18] | Plant response rating, Kochia [8, 20] | Plant response rating, Lambsquarters [9, 17] | Plant response rating (scale of 0 to 100), Lambsquarters ([9]; Preemergence, 31 g ai/ha) | Plant response rating, Lambsquarters [9, 20] | Plant response rating, Ryegrass, Italian [11, 17] | Plant response rating, Ryegrass, Italian [11, 18] | Plant response rating, Windgrass [14, 19]
75: Plant response rating, Blackgrass [2, 19] | Plant response rating, Bromegrass, Downy [3, 19] | Ryegrass, Italian plant response rating [11, 15] | Plant response rating, Speedwell [12, 17] | Plant response rating (scale of 0 to 100), Windgrass ([14]; Preemergence, 31 g ai/ha)
55: Plant response rating, Radish, Wild [10, 19]
45: Plant response rating, Russian Thistle [1, 20] | Speedwell plant response rating [12, 22]
80: Chamomile plant response rating [4, 22] | Plant response rating, Windgrass [14, 16] | Plant response rating (scale of 0 to 100), Windgrass ([14]; Preemergence, 62 g ai/ha) | Plant response rating, Windgrass [14, 18]
25: Plant response rating, Blackgrass [2, 20] | Plant response rating, Bromegrass, Downy [3, 16]
90: Plant response rating, Russian Thistle [1, 19] | Chickweed plant response rating [5, 15] | Plant response rating, Chickweed [5, 20] | Plant response rating, Field Violet [7, 20] | Plant response rating, Lambsquarters [9, 16] | Plant response rating, Ryegrass, Italian [11, 16] | Plant response rating (scale of 0 to 100), Ryegrass, Italian ([11]; Preemergence, 62 g ai/ha)
40: Russian Thistle plant response rating [1, 15]
15: Blackgrass plant response rating [2, 15] | Plant response rating, Deadnettle [6, 18] | Plant response rating (scale of 0 to 100), Radish, Wild ([10]; Preemergence, 62 g ai/ha) | Plant response rating, Radish, Wild [10, 20]
100: Plant response rating, Chamomile [4, 16] | Plant response rating, Chamomile [4, 17] | Plant response rating, Chickweed [5, 16] | Plant response rating, Chickweed [5, 17] | Plant response rating (scale of 0 to 100), Chickweed ([5]; Preemergence, 31 g ai/ha) | Plant response rating (scale of 0 to 100), Chickweed ([5]; Preemergence, 62 g ai/ha) | Plant response rating, Chickweed [5, 18] | Plant response rating, Chickweed [5, 19] | Plant response rating, Field Violet [7, 17] | Plant response rating (scale of 0 to 100), Field Violet ([7]; Preemergence, 31 g ai/ha) | Plant response rating (scale of 0 to 100), Field Violet ([7]; Preemergence, 62 g ai/ha) | Plant response rating, Field Violet [7, 18] | Plant response rating, Field Violet [7, 19] | Plant response rating, Kochia [8, 17] | Plant response rating, Kochia [8, 19] | Plant response rating (scale of 0 to 100), Lambsquarters ([9]; Preemergence, 62 g ai/ha) | Plant response rating, Lambsquarters [9, 18] | Plant response rating, Lambsquarters [9, 19]
10: Bromegrass, Downy plant response rating [3, 15] | Deadnettle plant response rating [6, 22] | Plant response rating (scale of 0 to 100), Deadnettle ([6]; Preemergence, 62 g ai/ha) | Plant response rating, Deadnettle [6, 20] | Plant response rating (scale of 0 to 100), Kochia ([8]; Preemergence, 31 g ai/ha) | Plant response rating, Wheat, Winter [13, 16]
20: Plant response rating, Bromegrass, Downy [3, 20] | Plant response rating, Deadnettle [6, 16] | Plant response rating, Radish, Wild [10, 16] | Plant response rating, Wheat, Winter [13, 17]
0: Plant response rating (scale of 0 to 100), Russian Thistle ([1]; Preemergence, 31 g ai/ha) | Wheat, Winter plant response rating [13, 15] | Plant response rating (scale of 0 to 100), Wheat, Winter ([13]; Preemergence, 31 g ai/ha) | Plant response rating (scale of 0 to 100), Wheat, Winter ([13]; Preemergence, 62 g ai/ha)
35: Plant response rating (scale of 0 to 100), Blackgrass ([2]; Preemergence, 31 g ai/ha) | Plant response rating (scale of 0 to 100), Bromegrass, Downy ([3]; Preemergence, 31 g ai/ha) | Plant response rating, Radish, Wild [10, 18]
60: Plant response rating (scale of 0 to 100), Russian Thistle ([1]; Preemergence, 62 g ai/ha) | Plant response rating, Blackgrass [2, 18] | Windgrass plant response rating [14, 15]
65: Plant response rating, Blackgrass [2, 16] | Plant response rating, Blackgrass [2, 17] | Plant response rating, Bromegrass, Downy [3, 17] | Plant response rating, Bromegrass, Downy [3, 21] | Plant response rating, Deadnettle [6, 19] | Plant response rating, Speedwell [12, 16]
5: Radish, Wild plant response rating [10, 22] | Plant response rating, Wheat, Winter [13, 18] | Plant response rating, Wheat, Winter [13, 19] | Plant response rating, Wheat, Winter [13, 20]
50: Plant response rating, Russian Thistle [1, 16] | Plant response rating, Russian Thistle [1, 17] | Plant response rating, Blackgrass [2, 21] | Plant response rating (scale of 0 to 100), Kochia ([8]; Preemergence, 62 g ai/ha) | Plant response rating, Speedwell [12, 20]
70: Plant response rating, Russian Thistle [1, 18] | Plant response rating, Bromegrass, Downy [3, 18] | Plant response rating, Radish, Wild [10, 17] | Plant response rating, Windgrass [14, 20]
30: Plant response rating, Deadnettle [6, 17]
85: Plant response rating, Chamomile [4, 20] | Field Violet plant response rating [7, 15] | Kochia plant response rating [8, 15] | Lambsquarters plant response rating [9, 15] | Plant response rating (scale of 0 to 100), Ryegrass, Italian ([11]; Preemergence, 31 g ai/ha) | Plant response rating, Ryegrass, Italian [11, 20] | Plant response rating, Windgrass [14, 17]
98: Plant response rating, Ryegrass, Italian [11, 19]

Cc1cc(C)c2ccccc2c1-c1c(O)c(C)nn(C)c1=O [Compound 21]
20: Wheat, Winter plant response rating [13, 15]
45: Bromegrass, Downy plant response rating [3, 15] | Plant response rating, Kochia [8, 20]
35: Kochia plant response rating [8, 15] | Plant response rating, Wheat, Winter [13, 16]
25: Plant response rating, Wheat, Winter [13, 20]
80: Plant response rating, Russian Thistle [1, 16] | Blackgrass plant response rating [2, 15] | Plant response rating, Bromegrass, Downy [3, 17] | Lambsquarters plant response rating [9, 15] | Ryegrass, Italian plant response rating [11, 15] | Plant response rating, Ryegrass, Italian [11, 17] | Plant response rating, Ryegrass, Italian [11, 20] | Plant response rating, Windgrass [14, 20]
60: Plant response rating, Bromegrass, Downy [3, 20]
85: Plant response rating, Russian Thistle [1, 17] | Plant response rating, Blackgrass [2, 16] | Plant response rating, Blackgrass [2, 20] | Plant response rating, Kochia [8, 17] | Plant response rating, Lambsquarters [9, 20] | Plant response rating, Ryegrass, Italian [11, 16] | Plant response rating, Windgrass [14, 16] | Plant response rating, Windgrass [14, 17]
100: Plant response rating, Chamomile [4, 16] | Plant response rating, Chamomile [4, 17] | Plant response rating, Chickweed [5, 16] | Plant response rating, Chickweed [5, 17] | Plant response rating, Chickweed [5, 20] | Plant response rating, Deadnettle [6, 17] | Plant response rating, Deadnettle [6, 20] | Plant response rating, Field Violet [7, 16] | Plant response rating, Field Violet [7, 17] | Plant response rating, Radish, Wild [10, 16] | Plant response rating, Radish, Wild [10, 17] | Plant response rating, Radish, Wild [10, 20] | Speedwell plant response rating [12, 22] | Plant response rating, Speedwell [12, 16] | Plant response rating, Speedwell [12, 17] | Plant response rating, Speedwell [12, 20]
95: Plant response rating, Chamomile [4, 20] | Plant response rating, Deadnettle [6, 16] | Field Violet plant response rating [7, 15] | Plant response rating, Field Violet [7, 20] | Plant response rating, Lambsquarters [9, 17] | Radish, Wild plant response rating [10, 22]
75: Plant response rating, Russian Thistle [1, 20] | Plant response rating, Bromegrass, Downy [3, 16] | Plant response rating, Kochia [8, 16]
40: Plant response rating, Wheat, Winter [13, 17]
90: Plant response rating, Blackgrass [2, 17] | Chamomile plant response rating [4, 22] | Chickweed plant response rating [5, 15] | Deadnettle plant response rating [6, 22] | Plant response rating, Lambsquarters [9, 16]
70: Russian Thistle plant response rating [1, 15] | Windgrass plant response rating [14, 15]
